The values below come from article PMC11513893, “Discovery of Oral Degraders of the ROS1 Fusion Protein with Potent Activity against Secondary Resistance Mutations” (Journal of Medicinal Chemistry, 2024).

One assay has as its system Ba/F3 ROS1-G2032R. Nature of the assay: Antiproliferation assay. The assay is classed as cell-based, mouse. The note with it: Ba/F3 cells, cell growth inhibition, 72 h. An excerpt: (§1) To assess targeted degradation of ROS1 fusion proteins, we first established a mouse pro-B cell line Ba/F3 as a model expressing the CD74-ROS1 oncogene or CD74-ROS1 with clinically observed secondary/tertiary mutations. The Ba/F3 cell line is dependent on interleukin-3 for survival and proliferation. Upon transduction of oncogenic ROS1, Ba/F3 cells become independent of interleukin-3 but dependent on the transduced driver gene.
(§2) Ba/F3 immortalized murine bone marrow–derived pro-B cells were obtained from Creative Biogene (Shirley, NY) and cultured in RPMI supplemented with 10% FBS and IL3 (0.5 ng/mL). Ba/F3 cells expressing ROS1 variants were maintained in RPMI supplemented with 10% FBS and puromycin (0.7 mg/mL). […] Each compound was dissolved in DMSO and serially diluted in RPMI for cell culture experiments.
(§3) To assess the 72 h effect of drug treatment on cell proliferation, 2000 to 3000 cells were plated in replicates of three in 96-well plates. The plates were placed in an incubator at 37 °C, 5% CO2 for 72 h. Following drug treatments, the cells were incubated with the Alamar Blue Assay reagent (BioRad), 5 μL each well for 4 h at 37 °C and 5% CO2. Luminescence was measured on a multiplate reader and analyzed. […] IC50 values were determined using a nonlinear regression model with a sigmoidal dose response in GraphPad. The data were collected based on triplicate experiments, and presented as mean ± SD.
(§4) The resulting virus was used to infect Ba/F3 cells. After retroviral infection, Ba/F3 cells were selected by incubation with puromycin (0.7 mg/mL) for 2 weeks. For Ba/F3 cells infected by the CD74–ROS1 variants, IL3 was withdrawn from the culture medium at least 2 weeks before the experiments.

For another assay, the system named is ROS1. The experiment in a line: ROS1 degradation in Ba/F3 cells (WES immunoblotting). The conditions noted are these: for DC50: concentration needed to reduce ROS1 protein by 50%, Ba/F3 cells; for Dmax (%) (ROS1): maximal degradation of ROS1 in Ba/F3 cells. The assay is classed as cell-based. On the procedure:
Protein levels were analyzed using a WES instrument according to the WES User Guide from ProteinSimple in duplicate experiments. The samples were mixed with the fluorescent 5 master mix (ProteinSimple) and then heated at 95 °C for 5 min. Boiled samples, biotinylated protein ladder, antibody diluent, Streptavidin-HRP, primary antibodies, ProteinSimple horseradish peroxidase conjugated antirabbit or antimouse secondary antibodies, luminol-peroxide, and wash buffer were loaded into the WES plate (Wes 12–230 kDa Prefilled Plates with Split Buffer, ProteinSimple). The plates and capillary cartridges were loaded into the WES instrument, and protein separation, antibody incubation, and imaging were performed according to manufacturer’s instructions. Compass software (ProteinSimple) was used to acquire the data and to generate the virtual blot image reconstruction and chemiluminescence signal intensity electropherograms. […] Protein levels are expressed as the AUC of the peak chemiluminescence intensity. Antibodies against phospho-ROS1(Tyr2274/2334) (E8F5J), ROS1 (D4D6(R)) were obtained from Cell Signaling Technology.
(In general: Immunoblotting shows a protein as a band on a membrane.)

Assay [1] deals with Ba/F3 CD74-ROS1 non mutant. Nature of the assay: Antiproliferation assay (Alamar Blue, 72 h). The note with it: Ba/F3 cells, cell growth inhibition. In kind it is cell-based, mouse.
Text: as §1, §2, §3, §4
For orientation: Resazurin is reduced to fluorescent resorufin, in cell work by metabolically active cells.

As for “3-(5-(4-((4-(4-((5-Chloro-4-((2-(dimethylphosphoryl)phenyl)amino)pyrimidin-2-yl)amino)-3-methoxyphenyl)piperazin-1-yl)methyl)piperidin-1-yl)-1-oxoisoindolin-2-yl)piperidine-2,6-dione [9n]”, the IC50 (usually the concentration at which inhibition is half-maximal) in the assay with Ba/F3 ROS1-G2032R was determined as 195 ± 124 nM; in assay [1], 9.5 ± 0.5 nM. Moreover, the DC50 (as a rule, the concentration at which degradation of the target reaches its halfway point) in the assay on ROS1 was found to be 11 nM. Moreover, the “Dmax (%) (ROS1)” value in the assay with ROS1 is recorded as 93%.

Regarding “4-(3-(4-(1-(4-((5-Chloro-4-((2-(dimethylphosphoryl)phenyl)amino)pyrimidin-2-yl)amino)-3-methoxyphenyl)piperidin-4-yl)piperazin-1-yl)azetidin-1-yl)-2-(2,6-dioxopiperidin-3-yl)isoindoline-1,3-dione [9j]”, the IC50 in the assay with Ba/F3 ROS1-G2032R stood at 1040 ± 96 nM. Besides, in the assay with ROS1, the DC50 is 108 nM and the “Dmax (%) (ROS1)” value was determined as 77%. This compound yielded an IC50 in assay [1] of 113 ± 16 nM.

`C[C@@H](Oc1cc(-c2cnn(C3CCN(c4cccc5c4C(=O)N(C4CCC(=O)NC4=O)C5=O)CC3)c2)cnc1N)c1c(Cl)ccc(F)c1Cl` (stereo partly drawn) [7a, 4-(4-(4-(6-Amino-5-((R)-1-(2,6-dichloro-3-fluorophenyl)ethoxy)pyridin-3-yl)-1H-pyrazol-1-yl)piperidin-1-yl)-2-(2,6-dioxopiperidin-3-yl)isoindoline-1,3-dione]: the IC50 in the assay with Ba/F3 ROS1-G2032R (Mus musculus, BaF3) was > 5000 nM. For the same compound, in the assay with ROS1, half-maximal degradation (DC50) was put at 310 nM and the “Dmax (%) (ROS1)” value stood at 67%. Besides, the IC50 in assay [1] (Mus musculus, BaF3, 72 h) was 264 ± 44 nM.

Consider `C[C@@H](Oc1cc(-c2cnn(C3CCN(CC4CN(c5cccc6c5C(=O)N(C5CCC(=O)NC5=O)C6=O)C4)CC3)c2)cnc1N)c1c(Cl)ccc(F)c1Cl` (stereo partly drawn) [7b, 4-(3-((4-(4-(6-Amino-5-((R)-1-(2,6-dichloro-3-fluorophenyl)ethoxy)pyridin-3-yl)-1H-pyrazol-1-yl)piperidin-1-yl)methyl)azetidin-1-yl)-2-(2,6-dioxopiperidin-3-yl)isoindoline-1,3-dione], for which the IC50 in the assay on Ba/F3 ROS1-G2032R (Mus musculus, BaF3) is > 5000 nM; in assay [1] (Mus musculus, BaF3, 72 h) it was 2700 ± 254 nM. Also, the DC50 in the assay on ROS1 is > 1000 nM. Also, in the assay with ROS1, the “Dmax (%) (ROS1)” value is on record as <5%.

For `C[C@@H](Oc1cc(-c2cnn(C3CCN(CC4CCN(c5cccc6c5C(=O)N(C5CCC(=O)NC5=O)C6=O)CC4)CC3)c2)cnc1N)c1c(Cl)ccc(F)c1Cl` (stereo partly drawn) [7c, 4-(4-((4-(4-(6-Amino-5-((R)-1-(2,6-dichloro-3-fluorophenyl)ethoxy)pyridin-3-yl)-1H-pyrazol-1-yl)piperidin-1-yl)methyl)piperidin-1-yl)-2-(2,6-dioxopiperidin-3-yl)isoindoline-1,3-dione], the IC50 is > 5000 nM in the assay on Ba/F3 ROS1-G2032R (Mus musculus, BaF3) and 350 ± 106 nM in assay [1] (Mus musculus, BaF3, 72 h). In the assay with ROS1, this compound yielded a half-maximal degradation concentration (DC50) of 368 nM. Also, the “Dmax (%) (ROS1)” value in the assay with ROS1 is given as 76%.

As to `C[C@@H](Oc1cc(-c2cnn(C3CCN(CCC4CCN(c5cccc6c5C(=O)N(C5CCC(=O)NC5=O)C6=O)CC4)CC3)c2)cnc1N)c1c(Cl)ccc(F)c1Cl` (stereo partly drawn) [7d, 4-(4-(2-(4-(4-(6-Amino-5-((R)-1-(2,6-dichloro-3-fluorophenyl)ethoxy)pyridin-3-yl)-1H-pyrazol-1-yl)piperidin-1-yl)ethyl)piperidin-1-yl)-2-(2,6-dioxopiperidin-3-yl)isoindoline-1,3-dione], the IC50 in the assay on Ba/F3 ROS1-G2032R (Mus musculus, BaF3) was > 5000 nM. In addition, in the assay on ROS1, the DC50 worked out at 145 nM and the “Dmax (%) (ROS1)” value is on record as 78%. Besides, the IC50 in assay [1] (Mus musculus, BaF3, 72 h) stood at 106 ± 29 nM.

Take `C[C@@H](Oc1cc(-c2cnn(C3CCN(c4ccc5c(c4)C(=O)N(C4CCC(=O)NC4=O)C5=O)CC3)c2)cnc1N)c1c(Cl)ccc(F)c1Cl` (stereo partly drawn) [7e, 5-(4-(4-(6-Amino-5-((R)-1-(2,6-dichloro-3-fluorophenyl)ethoxy)pyridin-3-yl)-1H-pyrazol-1-yl)piperidin-1-yl)-2-(2,6-dioxopiperidin-3-yl)isoindoline-1,3-dione]: the IC50 stood at 2910 ± 742 nM in the assay with Ba/F3 ROS1-G2032R (Mus musculus, BaF3) and 155 ± 21 nM in assay [1] (Mus musculus, BaF3, 72 h). Moreover, half-maximal degradation in the assay on ROS1 (DC50) was put at 203 nM. Further, the “Dmax (%) (ROS1)” value in the assay with ROS1 was found to be 53%.

Take `C[C@@H](Oc1cc(-c2cnn(C3CCN(CC4CN(c5ccc6c(c5)C(=O)N(C5CCC(=O)NC5=O)C6=O)C4)CC3)c2)cnc1N)c1c(Cl)ccc(F)c1Cl` (stereo partly drawn) [7f, 5-(3-((4-(4-(6-Amino-5-((R)-1-(2,6-dichloro-3-fluorophenyl)ethoxy)pyridin-3-yl)-1H-pyrazol-1-yl)piperidin-1-yl)methyl)azetidin-1-yl)-2-(2,6-dioxopiperidin-3-yl)isoindoline-1,3-dione]: in the assay on Ba/F3 ROS1-G2032R (Mus musculus, BaF3), the IC50 is > 5000 nM. Moreover, in the assay on ROS1, the DC50 stood at 622 nM and the “Dmax (%) (ROS1)” value was determined as 24%. In assay [1] (Mus musculus, BaF3, 72 h), this compound showed a concentration for half-maximal inhibition (IC50) of 569 ± 73 nM.

For the compound `C[C@@H](Oc1cc(-c2cnn(C3CCN(CC4CCN(c5ccc6c(c5)C(=O)N(C5CCC(=O)NC5=O)C6=O)CC4)CC3)c2)cnc1N)c1c(Cl)ccc(F)c1Cl` (stereo partly drawn) [7g, 5-(4-((4-(4-(6-Amino-5-((R)-1-(2,6-dichloro-3-fluorophenyl)ethoxy)pyridin-3-yl)-1H-pyrazol-1-yl)piperidin-1-yl)methyl)piperidin-1-yl)-2-(2,6-dioxopiperidin-3-yl)isoindoline-1,3-dione], the IC50 in the assay with Ba/F3 ROS1-G2032R (Mus musculus, BaF3) was > 5000 nM; in assay [1] (Mus musculus, BaF3, 72 h), 15 ± 4 nM. For the same compound, in the assay on ROS1, the DC50 stood at 21 nM. In addition, the “Dmax (%) (ROS1)” value with ROS1 is 85%.

For `C[C@@H](Oc1cc(-c2cnn(C3CCN(CCC4CCN(c5ccc6c(c5)C(=O)N(C5CCC(=O)NC5=O)C6=O)CC4)CC3)c2)cnc1N)c1c(Cl)ccc(F)c1Cl` (stereo partly drawn) [7h, 5-(4-(2-(4-(4-(6-Amino-5-((R)-1-(2,6-dichloro-3-fluorophenyl)ethoxy)pyridin-3-yl)-1H-pyrazol-1-yl)piperidin-1-yl)ethyl)piperidin-1-yl)-2-(2,6-dioxopiperidin-3-yl)isoindoline-1,3-dione], the IC50 with Ba/F3 ROS1-G2032R (Mus musculus, BaF3) is > 5000 nM. In addition, in the assay on ROS1, the DC50 is > 1000 nM and the “Dmax (%) (ROS1)” value is reported as 11%. Besides, the IC50 in assay [1] (Mus musculus, BaF3, 72 h) is 842 ± 172 nM.

For the compound `C[C@@H](Oc1cc(-c2cnn(C3CCN(CC4CCN(CC5CCN(c6ccc7c(c6)C(=O)N(C6CCC(=O)NC6=O)C7=O)CC5)CC4)CC3)c2)cnc1N)c1c(Cl)ccc(F)c1Cl` (stereo partly drawn) [7i, 5-(4-((4-((4-(4-(6-Amino-5-((R)-1-(2,6-dichloro-3-fluorophenyl)ethoxy)pyridin-3-yl)-1H-pyrazol-1-yl)piperidin-1-yl)methyl)piperidin-1-yl)methyl)piperidin-1-yl)-2-(2,6-dioxopiperidin-3-yl)isoindoline-1,3-dione], the IC50 in the assay on Ba/F3 ROS1-G2032R (Mus musculus, BaF3) was > 5000 nM; in assay [1] (Mus musculus, BaF3, 72 h), 284 ± 51 nM. The DC50 in the assay with ROS1 came out at 338 nM. Besides, in the assay on ROS1, the “Dmax (%) (ROS1)” value was determined as 32%.

As for `Cc1cc(Nc2ncc(Cl)c(Nc3ccccc3S(=O)(=O)C(C)C)n2)c(OC(C)C)cc1C1CCN(CCNc2cccc3c2C(=O)N(C2CCC(=O)NC2=O)C3=O)CC1` (stereo not shown) [8a, 4-((2-(4-(4-((5-Chloro-4-((2-(isopropylsulfonyl)phenyl)amino)pyrimidin-2-yl)amino)-5-isopropoxy-2-methylphenyl)piperidin-1-yl)ethyl)amino)-2-(2,6-dioxopiperidin-3-yl)isoindoline-1,3-dione], in the assay on Ba/F3 ROS1-G2032R (Mus musculus, BaF3), the IC50 was > 10000 nM. Also, in the assay on ROS1, half-maximal degradation (DC50) was put at 225 nM and the “Dmax (%) (ROS1)” value was found to be 58%. Moreover, in assay [1] (Mus musculus, BaF3, 72 h), half-maximal inhibition (IC50) was put at 176 ± 31 nM.

Turning to `Cc1cc(Nc2ncc(Cl)c(Nc3ccccc3S(=O)(=O)C(C)C)n2)c(OC(C)C)cc1C1CCN(CCCNc2cccc3c2C(=O)N(C2CCC(=O)NC2=O)C3=O)CC1` (stereo not shown) [8b, 4-((3-(4-(4-((5-Chloro-4-((2-(isopropylsulfonyl)phenyl)amino)pyrimidin-2-yl)amino)-5-isopropoxy-2-methylphenyl)piperidin-1-yl)propyl)amino)-2-(2,6-dioxopiperidin-3-yl)isoindoline-1,3-dione], the IC50 in the assay on Ba/F3 ROS1-G2032R (Mus musculus, BaF3) is > 10000 nM. Besides, in the assay with ROS1, it took 140 nM to reach half-maximal degradation (DC50) and the “Dmax (%) (ROS1)” value is 71%. The compound also displayed an IC50 in assay [1] (Mus musculus, BaF3, 72 h) of 122 ± 17 nM.

Take `Cc1cc(Nc2ncc(Cl)c(Nc3ccccc3S(=O)(=O)C(C)C)n2)c(OC(C)C)cc1C1CCN(C2CN(C3CCN(c4ccc5c(c4)C(=O)N(C4CCC(=O)NC4=O)C5=O)CC3)C2)CC1` (stereo not shown) [8p, 5-(4-(3-(4-(4-((5-Chloro-4-((2-(isopropylsulfonyl)phenyl)amino)pyrimidin-2-yl)amino)-5-isopropoxy-2-methylphenyl)piperidin-1-yl)azetidin-1-yl)piperidin-1-yl)-2-(2,6-dioxopiperidin-3-yl)isoindoline-1,3-dione]: in the assay with ROS1, the half-maximal degradation concentration (DC50) worked out at 27 nM and the “Dmax (%) (ROS1)” value is given as 93%. For the same compound, in assay [1] (Mus musculus, BaF3, 72 h), the IC50 was determined as 40 ± 6 nM.
